Source: PubChem BioAssay AID248 (DTP/NCI, 2004)
“And” between values parts separate entries of the source, which are not always exact repeats. Equal values may be shown once. Inconclusive results and toxic doses are left out. Cut-off read from the data, not from the text of the source: active = T/C of 150% or more; inactive = T/C below 125%.

Test system: L1210 leukemia ip in BDF1 mice, survival T/C
Assay: NCI In Vivo Anticancer Drug Screen. Data for tumor model L1210 Leukemia (intraperitoneal) in B6D2F1 (BDF1) mice
Conditions: endpoint: mean survival time, higher = longer survival
Method in brief: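 Transplanted-tumor mice were given test agent; controls received vehicle only. Survival readings from the two groups were divided (treated over control).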

[1] = dose: 15.0 mg/kg/injection, schedule: Q04DX003 (ip), vehicle: saline
[2] = dose: 30.0 mg/kg/injection, schedule: Q04DX003 (ip), vehicle: saline
[3] = dose: 60.0 mg/kg/injection, schedule: Q04DX003 (ip), vehicle: saline
[4] = dose: 100.0 mg/kg/injection, schedule: Q04DX003 (ip), vehicle: saline
[5] = dose: 200.0 mg/kg/injection, schedule: Q04DX003 (ip), vehicle: saline
[6] = dose: 400.0 mg/kg/injection, schedule: Q04DX003 (ip), vehicle: saline
[7] = dose: 100.0 mg/kg/injection, schedule: Q01DX001 (ip), vehicle: saline
[8] = dose: 200.0 mg/kg/injection, schedule: Q01DX001 (ip), vehicle: saline
[9] = dose: 400.0 mg/kg/injection, schedule: Q01DX001 (ip), vehicle: saline
[10] = dose: 100.0 mg/kg/injection, schedule: Q04DX002 (ip), vehicle: Klucel (hydroxypropylcellulose) (HPC)
[11] = dose: 100.0 mg/kg/injection, schedule: Q04DX003 (ip), vehicle: Klucel (hydroxypropylcellulose) (HPC)
[12] = dose: 200.0 mg/kg/injection, schedule: Q04DX002 (ip), vehicle: Klucel (hydroxypropylcellulose) (HPC)
[13] = dose: 400.0 mg/kg/injection, schedule: Q04DX002 (ip), vehicle: Klucel (hydroxypropylcellulose) (HPC)
[14] = dose: 100.0 mg/kg/injection, schedule: Q01DX009 (ip), vehicle: saline
[15] = dose: 200.0 mg/kg/injection, schedule: Q01DX009 (ip), vehicle: saline
[16] = dose: 100.0 mg/kg/injection, schedule: Q01DX009 (ip), vehicle: Klucel (hydroxypropylcellulose) (HPC)
[17] = dose: 200.0 mg/kg/injection, schedule: Q01DX009 (ip), vehicle: Klucel (hydroxypropylcellulose) (HPC)
[18] = dose: 400.0 mg/kg/injection, schedule: Q01DX009 (ip), vehicle: Klucel (hydroxypropylcellulose) (HPC)
[19] = dose: 100.0 mg/kg/injection, schedule: Q04DX002 (ip), vehicle: saline

Measured: T/C

O=Cc1sc2cc[nH]c2c1O
inactive: dose: 100.0 mg/kg/injection, schedule: Q04DX003 (ip), vehicle: saline with Tween-80 100 % of control | dose: 200.0 mg/kg/injection, schedule: Q04DX003 (ip), vehicle: saline with Tween-80 97 % of control | dose: 400.0 mg/kg/injection, schedule: Q04DX003 (ip), vehicle: saline with Tween-80 94 % of control

Cc1ccc(C(=O)CCCc2ccccn2)cc1
inactive: dose: 222.0 mg/kg/injection, schedule: Q01DX Z (ip), vehicle: methylcellulose (MC) 98 % of control | dose: 333.0 mg/kg/injection, schedule: Q01DX Z (ip), vehicle: methylcellulose (MC) 100 % of control | dose: 500.0 mg/kg/injection, schedule: Q01DX Z (ip), vehicle: methylcellulose (MC) 87 % of control

Clc1nc2ccccc2n2nnnc12
inactive: [1] 101 % of control | [2] 98 % of control | [3] 86 % of control

CC1CCN(C(=O)Nc2cccc(C(F)(F)F)c2)CC1
inactive: dose: 100.0 mg/kg/injection, schedule: Q01DX009 (ip), vehicle: saline with Tween-80 94 % of control | dose: 200.0 mg/kg/injection, schedule: Q01DX009 (ip), vehicle: saline with Tween-80 97 % of control | dose: 400.0 mg/kg/injection, schedule: Q01DX009 (ip), vehicle: saline with Tween-80 91 % of control

Nc1ccc(NC=O)c(Cl)c1
inactive: [4] 102 % of control | [5] 108 % of control | [6] 102 % of control

CCCCCCCCCCCCc1ccc2c(ccc3ccccc32)c1
inactive: [7] 95 % of control | [8] 98 % of control | [9] 98 % of control

Cc1c(C)c(O)c(SC(CC(=O)O)C(=O)O)c(C)c1O (stereo unspecified)
inactive: [10] 100 % of control | [11] 103 % of control | [12] 103 % of control | dose: 200.0 mg/kg/injection, schedule: Q04DX003 (ip), vehicle: Klucel (hydroxypropylcellulose) (HPC) 103 % of control | [13] 97 % of control | dose: 400.0 mg/kg/injection, schedule: Q04DX003 (ip), vehicle: Klucel (hydroxypropylcellulose) (HPC) 90 % of control

Nc1nc2ccccc2n1C1OC(CO)C(O)C1O (stereo unspecified)
inactive: [7] 101 % of control | [8] 95 % of control | [9] 104 % of control

CC(C)(C)C1CCC(O)C(Cl)C1 (stereo unspecified)
inactive: [14] 100 % of control | [15] 98 % of control

CCOC(=O)c1ccc(NC(=O)Oc2ccc3c(C)cc(=O)oc3c2)cc1
inactive: [16] 101 % of control | [17] 100 % of control | [18] 89 % of control

Nc1cc(SC(c2ccccc2)c2ccccc2)c(N)c(N)n1
inactive: dose: 75.0 mg/kg/injection, schedule: Q01DX001 (ip), vehicle: DMSO 96 % of control | dose: 150.0 mg/kg/injection, schedule: Q01DX001 (ip), vehicle: DMSO 88 % of control

CCCCC(C#N)(C(=O)OCC)C(C)(C)C (stereo unspecified)
inactive: [14] 105 % of control | [4] 96 % of control | [15] 92 % of control | [5] 97 % of control | dose: 400.0 mg/kg/injection, schedule: Q01DX009 (ip), vehicle: saline 101 % of control | [6] 96 % of control

COC(=O)CC(c1ccccc1)N1CCCC1 (stereo unspecified)
inactive: [7] 98 % of control | [8] 104 % of control | [9] 108 % of control

S=C(Nc1ccc(Cl)c(Cl)c1)SCc1ccc(Cl)c(Cl)c1
inactive: [1] 97 % of control | [2] 101 % of control | [3] 101 % of control | [19] 88 % of control | dose: 200.0 mg/kg/injection, schedule: Q04DX002 (ip), vehicle: saline 112 % of control | dose: 400.0 mg/kg/injection, schedule: Q04DX002 (ip), vehicle: saline 88 % of control

O=C1c2ccccc2C(=O)N1CCCCCCCCCN1C(=O)c2ccccc2C1=O
inactive: [10] 113 % of control | [12] 90 % of control | [13] 90 % of control

N#CSc1ccc(NN)cc1
inactive: dose: 3.0 mg/kg/injection, schedule: Q01DX009 (ip), vehicle: saline with Tween-80 97 % of control | dose: 6.0 mg/kg/injection, schedule: Q01DX009 (ip), vehicle: saline with Tween-80 90 % of control | dose: 6.0 mg/kg/injection, schedule: Q04DX004 (ip), vehicle: saline with Tween-80 100 % of control | dose: 12.0 mg/kg/injection, schedule: Q01DX009 (ip), vehicle: saline with Tween-80 95 % of control | dose: 12.0 mg/kg/injection, schedule: Q04DX004 (ip), vehicle: saline with Tween-80 98 % of control | dose: 25.0 mg/kg/injection, schedule: Q01DX009 (ip), vehicle: saline with Tween-80 96 % of control | dose: 25.0 mg/kg/injection, schedule: Q04DX003 (ip), vehicle: saline with Tween-80 93 % of control | dose: 25.0 mg/kg/injection, schedule: Q04DX004 (ip), vehicle: saline with Tween-80 102 % of control

CCc1cccc(CC)c1N=Cc1ccccc1
inactive: [16] 97 % of control | [17] 105 % of control | [18] 97 % of control

CC(CN(C)C)C(=O)c1ccccc1 (stereo unspecified)
inactive: dose: 25.0 mg/kg/injection, schedule: Q01DX009 (ip), vehicle: Klucel (hydroxypropylcellulose) (HPC) 106 % of control | dose: 25.0 mg/kg/injection, schedule: Q01DX009 (ip), vehicle: saline 105 % of control and 104 % of control | dose: 25.0 mg/kg/injection, schedule: Q04DX002 (ip), vehicle: saline 104 % of control | dose: 25.0 mg/kg/injection, schedule: Q04DX003 (ip), vehicle: Klucel (hydroxypropylcellulose) (HPC) 91 % of control | dose: 25.0 mg/kg/injection, schedule: Q04DX003 (ip), vehicle: saline 98 % of control | dose: 50.0 mg/kg/injection, schedule: Q01DX009 (ip), vehicle: Klucel (hydroxypropylcellulose) (HPC) 101 % of control | dose: 50.0 mg/kg/injection, schedule: Q01DX009 (ip), vehicle: saline 110 % of control and 100 % of control | dose: 50.0 mg/kg/injection, schedule: Q04DX002 (ip), vehicle: saline 96 % of control | dose: 50.0 mg/kg/injection, schedule: Q04DX003 (ip), vehicle: Klucel (hydroxypropylcellulose) (HPC) 100 % of control | dose: 50.0 mg/kg/injection, schedule: Q04DX003 (ip), vehicle: saline 88 % of control | [16] 108 % of control | [14] 102 % of control and 96 % of control | [19] 96 % of control | [11] 101 % of control and 102 % of control | [4] 96 % of control and 103 % of control

N#CCC[N+]1([O-])CCCCC1C(=O)O (stereo unspecified)
inactive: [7] 98 % of control | [8] 98 % of control

Cc1c(C(=O)O)c(C(=O)O)c(C)n1-c1ccccc1C(=O)O (tested in a mixture with another compound)
inactive: [4] 106 % of control | [5] 101 % of control

S=C(Cc1ccc2ccccc2c1)N1CCOCC1
inactive: dose: 25.0 mg/kg/injection, schedule: Q01DX009 (ip), vehicle: saline sonified 94 % of control | dose: 50.0 mg/kg/injection, schedule: Q01DX009 (ip), vehicle: saline sonified 100 % of control | dose: 100.0 mg/kg/injection, schedule: Q01DX001 (ip), vehicle: saline with Tween-80 105 % of control | dose: 100.0 mg/kg/injection, schedule: Q01DX009 (ip), vehicle: saline sonified 96 % of control
